Experimental data taken from patent US20210300940A1 (Merck Patent GmbH, priority 2018, published 2021).
Where a name gives a salt, the structure may show the parent alone.

Legend:
TLR7 = biological target: T1, TLR7 (Homo sapiens, UniProt Q9NYK1); assay: HEK/293 TLR7 Cell Assay; format: cell-based; details: TLR7/NFKb HEK cells, R848 agonist 10 uM final concentration, Steady-Glo readout; read-out: TLR7 potency
T1 construct: expressed in transfected cells; host or cells: HEK/293 cells carrying TLR7 and an NF-kB luciferase reporter
T1 sequence (Q9NYK1 27-1049): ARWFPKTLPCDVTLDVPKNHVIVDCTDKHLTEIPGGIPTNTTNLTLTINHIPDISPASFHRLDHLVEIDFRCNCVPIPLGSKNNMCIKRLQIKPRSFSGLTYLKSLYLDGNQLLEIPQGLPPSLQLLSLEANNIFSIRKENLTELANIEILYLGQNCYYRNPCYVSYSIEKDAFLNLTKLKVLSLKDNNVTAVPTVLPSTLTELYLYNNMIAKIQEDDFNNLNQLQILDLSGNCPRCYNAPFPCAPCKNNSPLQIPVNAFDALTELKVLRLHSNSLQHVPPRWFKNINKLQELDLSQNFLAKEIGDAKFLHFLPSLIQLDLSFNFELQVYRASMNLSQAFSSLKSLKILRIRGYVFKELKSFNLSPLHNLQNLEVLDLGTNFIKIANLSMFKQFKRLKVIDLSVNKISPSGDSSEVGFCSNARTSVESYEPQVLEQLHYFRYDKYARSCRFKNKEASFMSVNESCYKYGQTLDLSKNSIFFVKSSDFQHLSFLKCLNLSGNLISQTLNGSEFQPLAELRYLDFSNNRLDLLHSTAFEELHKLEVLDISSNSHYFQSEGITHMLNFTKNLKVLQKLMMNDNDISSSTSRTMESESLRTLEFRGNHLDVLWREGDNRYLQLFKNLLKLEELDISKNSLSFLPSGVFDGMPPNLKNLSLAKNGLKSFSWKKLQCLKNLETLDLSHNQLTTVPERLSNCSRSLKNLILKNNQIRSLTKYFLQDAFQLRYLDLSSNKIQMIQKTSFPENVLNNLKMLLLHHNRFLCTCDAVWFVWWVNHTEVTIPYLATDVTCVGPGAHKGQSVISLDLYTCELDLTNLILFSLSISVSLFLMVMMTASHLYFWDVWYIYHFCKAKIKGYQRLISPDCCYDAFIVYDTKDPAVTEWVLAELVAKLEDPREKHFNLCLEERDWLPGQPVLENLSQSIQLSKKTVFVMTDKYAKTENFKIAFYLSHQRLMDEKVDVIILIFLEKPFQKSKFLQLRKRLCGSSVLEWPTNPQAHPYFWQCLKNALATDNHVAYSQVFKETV
Procedure, shortened: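 Compounds added to HEK cells expressing TLR7 with an NFκB reporter 30 min ahead of 10 uM R848 challenge; luciferase signal (Steady-Glo) measured after 5 h, cells having been seeded 24 h earlier at 5000 per well.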

TLR8 = biological target: T2, TLR8 (Homo sapiens, UniProt Q9NR97); assay: HEK/293 TLR8 Cell Assay; format: cell-based; details: HEK cells, R848 agonist 30 uM final concentration, Steady-Glo readout; read-out: TLR8 potency
T2 construct: expressed in transfected cells; host or cells: HEK/293 reporter cells (NF-kB luciferase)
T2 sequence (Q9NR97 27-1041): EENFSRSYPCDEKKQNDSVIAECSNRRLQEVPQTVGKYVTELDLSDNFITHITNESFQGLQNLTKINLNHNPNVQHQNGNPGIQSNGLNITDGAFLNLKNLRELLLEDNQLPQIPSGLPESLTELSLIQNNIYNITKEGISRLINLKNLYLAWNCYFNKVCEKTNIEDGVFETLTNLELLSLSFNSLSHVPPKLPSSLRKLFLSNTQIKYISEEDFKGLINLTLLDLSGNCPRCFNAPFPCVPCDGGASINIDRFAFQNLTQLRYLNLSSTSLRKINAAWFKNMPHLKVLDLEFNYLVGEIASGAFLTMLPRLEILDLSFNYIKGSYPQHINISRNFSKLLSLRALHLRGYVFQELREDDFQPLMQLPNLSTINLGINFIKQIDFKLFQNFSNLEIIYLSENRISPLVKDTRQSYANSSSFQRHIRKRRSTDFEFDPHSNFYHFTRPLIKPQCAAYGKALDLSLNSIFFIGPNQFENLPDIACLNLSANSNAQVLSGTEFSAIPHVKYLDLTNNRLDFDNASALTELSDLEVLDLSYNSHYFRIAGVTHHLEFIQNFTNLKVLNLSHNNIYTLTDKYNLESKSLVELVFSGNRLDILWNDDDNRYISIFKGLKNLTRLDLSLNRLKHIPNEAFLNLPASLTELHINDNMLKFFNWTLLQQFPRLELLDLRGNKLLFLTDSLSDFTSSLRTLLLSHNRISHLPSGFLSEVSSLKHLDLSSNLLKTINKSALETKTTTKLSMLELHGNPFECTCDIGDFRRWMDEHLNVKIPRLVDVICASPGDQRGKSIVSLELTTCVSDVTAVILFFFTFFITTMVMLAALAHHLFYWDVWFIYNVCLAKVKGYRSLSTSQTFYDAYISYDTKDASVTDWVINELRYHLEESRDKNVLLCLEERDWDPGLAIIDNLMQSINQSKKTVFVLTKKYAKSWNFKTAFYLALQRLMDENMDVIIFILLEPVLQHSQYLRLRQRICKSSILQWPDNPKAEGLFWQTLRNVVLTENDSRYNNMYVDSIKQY

## C[C@@H]1CN(c2ccc(C#N)c3nccnc23)C[C@H](C(=O)NCC2CS(=O)(=O)C2)O1 [Example 258, (2R,6R)-4-(8-cyanoquinoxalin-5-yl)-N-[(1,1-dioxo-1λ^6-thietan-3-yl)methyl]-6-methylmorpholine-2-carboxamide]
TLR7
  IC50: < 0.075 µM
TLR8
  IC50: > 0.15 µM

## C[C@H]1C[C@@H](NC(=O)[C@@H]2COCCN2)CN(c2ccc(C#N)c3nccnc23)C1 [Example 208, (3S)—N-[(3R,5S)-1-(8-cyanoquinoxalin-5-yl)-5-methylpiperidin-3-yl]morpholine-3-carboxamide]
TLR7
  IC50: 0.075 to 0.15 µM
TLR8
  IC50: < 0.075 µM

## Cc1ncc(N2C[C@@H](C)C[C@@H](NC(=O)CC3C4CC3CN(C)C4)C2)c2cccnc12 (stereo partly drawn) [Example 165, 2-(3-Methyl-3-aza-bicyclo[3.1.1]hept-6-yl)-N-[(3R,5S)-5-methyl-1-(8-methyl-naphthyridin-5-yl)-piperidin-3-yl]-acetamide]
TLR7
  IC50: < 0.075 µM
TLR8
  IC50: < 0.075 µM

## CN(C)CCNC(=O)N[C@@H]1C[C@H](C(F)(F)F)CN(c2ccc(C(F)(F)F)c3nccnc23)C1 [Example 142, 3-[2-(dimethylamino)ethyl]-1-[(3R,5S)-5-(trifluoromethyl)-1-[8-(trifluoromethyl)quinoxalin-5-yl]piperidin-3-yl]urea]
TLR7
  IC50: 0.075 to 0.15 µM
TLR8
  IC50: 0.075 to 0.15 µM

## C[C@H]1C[C@@H](N)CN(c2cnc(C#N)c3nccnc23)C1 [Example 187, 8-((3R,5S)-3-Amino-5-methyl-piperidin-1-yl)-pyrido[3,4-b]pyrazine-5-carbonitrile hydrochloride]
TLR7
  IC50: < 0.075 µM
TLR8
  IC50: < 0.075 µM

## C[C@@H]1CN(c2ccc(C#N)c3nccnc23)C[C@H](C(=O)N[C@H]2CCN(CC3CC3)C2)O1 (single isomer, unassigned) [Example 322]
TLR7
  IC50: < 0.075 µM
TLR8
  IC50: < 0.075 µM

## C[C@H]1C[C@@H](n2ccnn2)CN(c2ccc(C(F)(F)F)c3nccnc23)C1 (racemic) [Example 154, 5-[cis-3-methyl-5-(1H-1,2,3-triazol-1-yl)piperidin-1-yl]-8-(trifluoromethyl)quinoxaline]
TLR7
  IC50: > 0.15 µM
TLR8
  IC50: 0.075 to 0.15 µM

## C[C@H]1C[C@@H](NC(=O)C2(N)CCCNC2)CN(c2ccc(C(F)(F)F)c3ncccc23)C1 (stereo partly drawn) [Example 180, 3-Amino-piperidine-3-carboxylic acid [(3R,5S)-5-methyl-1-(8-trifluoromethyl-quinolin-5-yl)-piperidin-3-yl]-amide]
TLR7
  IC50: < 0.075 µM
TLR8
  IC50: < 0.075 µM

## CN1CCN(CC(=O)N[C@@H]2C[C@H](C(F)(F)F)CN(c3ccc(C(F)(F)F)c4ncccc34)C2)CC1 [Example 66, 2-(4-methylpiperazin-1-yl)-N-[(3R,5S)-5-(trifluoromethyl)-1-[8-(trifluoromethyl)quinolin-5-yl]piperidin-3-yl]acetamide]
TLR7
  IC50: < 0.075 µM
TLR8
  IC50: < 0.075 µM

## CN(C)CCNC(=O)N[C@@H]1C[C@H](C(F)(F)F)CN(c2ccc(C(F)(F)F)c3ncccc23)C1 [Example 144, 3-[2-(dimethylamino)ethyl]-1-[(3R,5S)-5-(trifluoromethyl)-1-[8-(trifluoromethyl)quinolin-5-yl]piperidin-3-yl]urea]
TLR7
  IC50: 0.075 to 0.15 µM
TLR8
  IC50: < 0.075 µM

## N#Cc1ncc(N2C[C@@H](C(F)(F)F)O[C@@H](C(=O)NCC3(F)CCNCC3)C2)c2cccnc12 (single isomer, unassigned) [Example 317]
TLR7
  IC50: < 0.075 µM
TLR8
  IC50: 0.075 to 0.15 µM

## C[C@@H]1CN(c2ccc(C#N)c3nccnc23)C[C@H](c2nc(C3CC3)no2)O1 (racemic) [Example 214, 8-[(2R,6R)-2-(3-Cyclopropyl-[1,2,4]oxadiazol-5-yl)-6-methyl-morpholin-4-yl]-quinoxaline-5-carbonitrile]
TLR7
  IC50: 0.075 to 0.15 µM
TLR8
  IC50: < 0.075 µM
